Values of other authors, collected in patent US6469069B1, “Propofol composition containing sulfite” (Gensia Sicor Pharmaceuticals, Inc., priority 1998, dated 2002).

Test system: likely microbial contaminants
Details: 1% Diprivan (Zeneca) 0.1% Na2S2O5

Structure (SMILES): O=S([O-])S(=O)(=O)[O-].[Na+].[Na+] [sodium metabisulfite, Sodium metabisulfite]
- Preservative effect in propofol emulsion (in words): completely ineffectual
